What all share (assay): NCI tumour cell line growth inhibition, 48 h
In assay [1] the test system is A498 renal.
Assay [2] concerns COLO 205 colon.
For assay [3], the system named is HCT-116 colon.
In assay [4] the test system is HS 578T breast.
Assay [5] concerns K-562 leukemia.
The test system of assay [6] is KM12 colon.
Assay [7] relates to MCF7 breast.
The test system of assay [8] is NCI-H226 lung.
Assay [9] relates to RXF 393 renal.
The subject of assay [10] is SW-620 colon.

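1) Cells in 96-well plates. 2) Compound, 48 h, 5 concentrations. 3) Linear interpolation between surrounding doses. 4) Unreached endpoint = highest concentration. Abbreviation: GI50, concentration required for 50% inhibition of growth. Definition used: TGI = concentration required for complete inhibition of growth.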

As for `CCCCCSc1ccc2nc(NC(=O)OCC)sc2c1`, the GI50 in [1] was 1220 nM; in assay [2] it was 530 nM; in [3] it was 466 nM; in assay [4], 944 nM; in assay [5] it was 393 nM; in assay [6], 409 nM. Besides, the GI50 in assay [7] is 300 nM; in [8], 1950 nM; in [9], 1030 nM; in [10], 453 nM. Moreover, the TGI was 7.88 µM in assay [1]; more than 100 µM in assay [2]; more than 100 µM in assay [3]; more than 100 µM in assay [4]; more than 100 µM in assay [5]; more than 100 µM in assay [6]. In addition, the TGI in assay [7] was more than 100 µM; in assay [8], more than 100 µM; in [9], 9.19 µM; in assay [10], more than 100 µM.

Regarding `CCn1nc(C2CCN(C(=O)CCO)CC2)nc1-c1cnc(N)c(-c2nnc(C(C)(C)C)o2)n1`, the GI50 is 617 nM in assay [1]; 2850 nM in assay [2]; 18800 nM in assay [3]; 836 nM in assay [4]; 27800 nM in [5]; 14900 nM in [6]. The GI50 was 375 nM in assay [7], 25800 nM in [8], 2450 nM in assay [9] and 18300 nM in assay [10]. Moreover, the TGI in [1] was 5.12 µM; in assay [2], 21.5 µM; in [3] it was 58.7 µM; in assay [4], 57 µM; in assay [5], more than 100 µM; in assay [6] it was 45.1 µM. In addition, the TGI in assay [7] was more than 100 µM; in assay [8], more than 100 µM; in [9] it was 20.9 µM; in [10] it was more than 100 µM.

As to `CCCCCCCCCCCCCCCCn1cc[n+](C)c1`, the GI50 in assay [1] was 109 nM; in assay [2], 270 nM; in [3] it was 267 nM; in [4], 383 nM; in assay [5], 131 nM; in assay [6], 264 nM. In addition, the results for the GI50 in assay [7], in [9] and in assay [10] were 367 nM, 252 nM and 468 nM, respectively. Also, the TGI in assay [1] was determined as 0.76 µM; in [3] it was 1.22 µM; in assay [4], 1.75 µM; in assay [5], 1.13 µM; in [6] it was 0.756 µM; in assay [7], 1.52 µM. Besides, the TGI in assay [9] is 0.907 µM; in [10], 1.78 µM.

With `CCOc1ccc(-c2nc3ccc(-c4nc5ccc(N6CCN(C)CC6)cc5[nH]4)cc3[nH]2)cc1`, the GI50 in [1] was 223 nM; in assay [2], 117 nM; in assay [3], 39.7 nM; in assay [4] it was 476 nM; in [5], 696 nM; in assay [6] it was 999 nM. Besides, the GI50 in assay [7] was 32.8 nM; in [8] it was 648 nM; in [10] it was 234 nM. In addition, the TGI in assay [1] turned out to be 1.05 µM; in assay [2] it was 1.26 µM; in assay [3] it was 0.26 µM; in assay [4] it was 2.52 µM; in assay [6], 2.15 µM; in assay [7], 0.38 µM. Also, the TGI in assay [8] was 2.25 µM; in [10] it was 1.17 µM.

In the case of `Clc1cc(Br)ccc1-c1ccc(CNCC2CCNCC2)o1`, the GI50 was 1870 nM in [1]; 1890 nM in assay [2]; 1690 nM in assay [3]; 1910 nM in assay [4]; 1450 nM in assay [5]; 1710 nM in [6]. Besides, the GI50 in assay [7] was 1740 nM; in assay [8], 2300 nM; in [10], 1850 nM. Moreover, the TGI was 4.24 µM in [1]; 3.51 µM in assay [2]; 3.97 µM in assay [3]; 4.37 µM in assay [4]; 3.46 µM in [5]; 3.22 µM in assay [6]. Further, the TGI in assay [7] worked out at 3.35 µM; in [8] it was 6.25 µM; in assay [10], 3.72 µM.

In the case of `COc1ccc(-c2cnc(-c3ccc(OC)cc3)n2-c2cc(OC)c(OC)c(OC)c2)cc1`, the GI50 was 12100 nM in [1]; 56000 nM in assay [2]; 30900 nM in [3]; 22900 nM in assay [4]; 34900 nM in [6]; 38500 nM in [7]. Further, the GI50 was 36700 nM in [8], 14000 nM in assay [9] and more than 100000 nM in assay [10]. In addition, the TGI is 39.5 µM in assay [1]; more than 100 µM in [2]; more than 100 µM in [3]; 64.2 µM in assay [4]; more than 100 µM in assay [6]; more than 100 µM in assay [7]. Besides, the TGI in [8] is more than 100 µM; in assay [9], 35.9 µM; in [10], more than 100 µM.

Regarding `CC(C)C1=Cc2ccc3c(c2C(=O)C1=O)CCCC3`, the TGI was determined as 18.5 µM in assay [1]; 27.1 µM in assay [2]; 5.39 µM in [3]; 55.9 µM in assay [4]; 14.1 µM in assay [5]; 32.4 µM in assay [6]. Also, the TGI in assay [8] was 36.1 µM; in assay [9] it was 7.82 µM; in assay [10], 14 µM.

In the case of `COc1ccc(C(=O)/C=C/c2cc(-c3ccc(OC)c(OC)c3)n[nH]2)cc1OC`, the GI50 in assay [1] was 1270 nM; in [2], 1550 nM; in [4] it was 3760 nM; in [5], 619 nM; in assay [6], 625 nM; in [7], 937 nM. Further, the results for the GI50 in assay [8], in assay [9] and in [10] were 1660 nM, 1450 nM and 1500 nM, respectively. The TGI in assay [1] was 3.2 µM; in assay [2], 3.1 µM; in [4], more than 100 µM; in assay [5], more than 100 µM; in [6], 2.08 µM; in assay [7], 8.02 µM. Besides, the results for the TGI in [8], in assay [9] and in assay [10] were 4.23 µM, 2.98 µM and 5.41 µM, respectively.

Take `COc1ccc(O)c(/C=N\Nc2ccccc2)c1`: the TGI in [1] was 91.6 µM; in assay [2], 26.2 µM; in assay [3], more than 100 µM; in assay [4], more than 100 µM; in [5] it was more than 100 µM; in assay [7] it was more than 100 µM. Further, the TGI in [8] was more than 100 µM; in assay [9], more than 100 µM; in assay [10], 22.6 µM.

Source of the values: PubChem BioAssay (NCI).
